# Measured values from patent publication US5591758A, “Organic nitrates, processes for their preparation and their use in the treatment of cardiovascular diseases” (Laboratoires Hoechst, SA, priority 1991, dated 1997).
# Values joined by “and” are separate entries in the source; they are usually repeats but may differ in a detail not shown here. Equal entries are not always repeated. Structures can show the parent of a compound that is named as a salt.
# Tested on: anaesthetised dogs
# Experiment: Tachyphylaxis model on anaesthetised dogs (repeated i.d. administration)
# Type: in vivo, dogs (labrador/harrier cross)
# Parameters: Δdp/dt average / ΔBPs / ΔBPd / ΔLVEDP / ΔHR / ΔBPs average / ΔBPd average / ΔLVEDP average / ΔHR average: unit not given here
# Details: for Δdp/dt / ΔBPd / ΔBPs / ΔHR / ΔLVEDP: single dog
# Procedure: Comparison with isosorbide mononitrate (IS-5-MN).
# The product (46) is tested in a tachyphylaxis model on anaesthetised dogs. IS-5-MN is used as reference substance.
# 8 dogs of each sex, weighing between 16 and 24 kg, are used. These dogs are the progeny of a labrador/harrier cross. Anaesthesia is induced with the aid of sodium pentobarbital (45 mg/kg i.v.) and maintained by i.v. perfusion (flow rate: 8 mg/kg/h). The animals are ventilated, with the aid of a "Bird Mark 7" respirator, using ambient air, and catheterised. […] The arterial blood gases are measured at regular intervals.
# IS-5-MN is also dissolved in water and given i.d. in a dosage of 5 mg/kg in a volume of 10 ml/animal.
# Three hours (in the case of IS-5-MN) or four hours (in the case of (46)) after the first administration, the compounds are readministered in the same dosage and by the same route. The haemodynamic parameter chosen for the study of the tachyphylaxis is the systolic blood pressure (BPs), insofar as this parameter is very sensitive to the administration of the compounds.
# [1] = i.d., IS-5-MN 5 mg/kg, (46) 0.75 mg/kg
# [2] = n = 4, 1st administration, 0.75 mg/kg i.d., 5 min
# [3] = n = 4, 1st administration, 0.75 mg/kg i.d., 10 min
# [4] = n = 4, 1st administration, 0.75 mg/kg i.d., 15 min
# [5] = n = 4, 1st administration, 0.75 mg/kg i.d., 30 min
# [6] = n = 4, 1st administration, 0.75 mg/kg i.d., 60 min
# [7] = n = 4, 1st administration, 0.75 mg/kg i.d., 120 min
# [8] = n = 4, 1st administration, 0.75 mg/kg i.d., 180 min
# [9] = n = 4, 1st administration, 0.75 mg/kg i.d., 240 min
# [10] = n = 4, 2nd administration, 0.75 mg/kg i.d., 5 min
# [11] = n = 4, 2nd administration, 0.75 mg/kg i.d., 10 min
# [12] = n = 4, 2nd administration, 0.75 mg/kg i.d., 15 min
# [13] = n = 4, 2nd administration, 0.75 mg/kg i.d., 30 min
# [14] = n = 4, 2nd administration, 0.75 mg/kg i.d., 60 min
# [15] = n = 4, 2nd administration, 0.75 mg/kg i.d., 120 min
# [16] = 1st administration, 0.75 mg/kg i.d., 5 min, monohydrochloride, 0.75 mg/kg
# [17] = 1st administration, 0.75 mg/kg i.d., 10 min, monohydrochloride, 0.75 mg/kg
# [18] = 1st administration, 0.75 mg/kg i.d., 15 min, monohydrochloride, 0.75 mg/kg
# [19] = 1st administration, 0.75 mg/kg i.d., 30 min, monohydrochloride, 0.75 mg/kg
# [20] = 1st administration, 0.75 mg/kg i.d., 60 min, monohydrochloride, 0.75 mg/kg
# [21] = 1st administration, 0.75 mg/kg i.d., 120 min, monohydrochloride, 0.75 mg/kg
# [22] = 1st administration, 0.75 mg/kg i.d., 180 min, monohydrochloride, 0.75 mg/kg
# [23] = 1st administration, 0.75 mg/kg i.d., 240 min, monohydrochloride, 0.75 mg/kg
# [24] = 2nd administration, 0.75 mg/kg i.d., 5 min
# [25] = 2nd administration, 0.75 mg/kg i.d., 5 min, monohydrochloride, 0.75 mg/kg
# [26] = 2nd administration, 0.75 mg/kg i.d., 10 min
# [27] = 2nd administration, 0.75 mg/kg i.d., 10 min, monohydrochloride, 0.75 mg/kg
# [28] = 2nd administration, 0.75 mg/kg i.d., 15 min, monohydrochloride, 0.75 mg/kg
# [29] = 2nd administration, 0.75 mg/kg i.d., 30 min, monohydrochloride, 0.75 mg/kg
# [30] = 2nd administration, 0.75 mg/kg i.d., 60 min, monohydrochloride, 0.75 mg/kg
# [31] = 2nd administration, 0.75 mg/kg i.d., 120 min, monohydrochloride, 0.75 mg/kg
structure (smiles),measurement,setting,value
"O=C(CNC(=O)[C@@H]1CSCN1)N[C@H]1CO[C@H]2[C@@H]1OC[C@@H]2O[N+](=O)[O-] [Compound 46, 5-[[2-[[(4-L-Thiazolidinyl)carbonyl]amino]-1oxoethyl]amino]-5-deoxy-2-O-nitro-1,4:3,6-dianhydro-L-iditol monohydrochloride]","fall in the BPs, first administration, on average",0.75 mg/kg i.d.,-30 mmHg
same,period of action,"compared with IS-5-MN, first administration",longer
same,development of tachyphylaxis after repeated administration,"dogs, two i.d. administrations",absence of the development of tachyphylaxis
same,maximum fall in the BP after second administration,[1],-33 mmHg
same,time of maximum effect on BPs after first administration,[1],60 min
same,time of maximum fall in the BP after second administration,[1],60 min
same,ΔBPd average,[2],-4
same,ΔBPs average,[2],-5
same,ΔHR average,[2],-1
same,ΔLVEDP average,[2],-0
same,Δdp/dt average,[2],0
same,ΔBPd average,[3],-11
same,ΔBPs average,[3],-18
same,ΔHR average,[3],-1
same,ΔLVEDP average,[3],-2
same,Δdp/dt average,[3],-100
same,ΔBPd average,[4],-16
same,ΔBPs average,[4],-26
same,ΔHR average,[4],-1
same,ΔLVEDP average,[4],-2
same,Δdp/dt average,[4],-125
same,ΔBPd average,[5],-20
same,ΔBPs average,[5],-30
same,ΔHR average,[5],-2
same,ΔLVEDP average,[5],-2
same,Δdp/dt average,[5],-150
same,ΔBPd average,[6],-20
same,ΔBPs average,[6],-33
same,ΔHR average,[6],-8
same,ΔLVEDP average,[6],-3
same,Δdp/dt average,[6],-200
same,ΔBPd average,[7],-20
same,ΔBPs average,[7],-31
same,ΔHR average,[7],-10
same,ΔLVEDP average,[7],-4
same,Δdp/dt average,[7],-250
same,ΔBPd average,[8],-15
same,ΔBPs average,[8],-24
same,ΔHR average,[8],-6
same,ΔLVEDP average,[8],-4
same,Δdp/dt average,[8],-150
same,ΔBPd average,[9],-7
same,ΔBPs average,[9],-12
same,ΔHR average,[9],0
same,ΔLVEDP average,[9],-4
same,Δdp/dt average,[9],25
same,ΔBPd average,[10],-5
same,ΔBPs average,[10],-6
same,ΔHR average,[10],0
same,ΔLVEDP average,[10],0
same,Δdp/dt average,[10],-50
same,ΔBPd average,[11],-6
same,ΔBPs average,[11],-11
same,ΔHR average,[11],0
same,ΔLVEDP average,[11],0
same,Δdp/dt average,[11],-75
same,ΔBPd average,[12],-10
same,ΔBPs average,[12],-18
same,ΔHR average,[12],-1
same,ΔLVEDP average,[12],0
same,Δdp/dt average,[12],-125
same,ΔBPd average,[13],-15
same,ΔBPs average,[13],-25
same,ΔHR average,[13],-1
same,ΔLVEDP average,[13],-1
same,Δdp/dt average,[13],-225
same,ΔBPd average,[14],-19
same,ΔBPs average,[14],-33
same,ΔHR average,[14],-4
same,ΔLVEDP average,[14],-2
same,Δdp/dt average,[14],350
same,ΔBPd average,[15],-15
same,ΔBPs average,[15],-26
same,ΔHR average,[15],-2
same,ΔLVEDP average,[15],-2
same,Δdp/dt average,[15],-275
same,Δdp/dt,"1st administration, 0.75 mg/kg i.d., 5 min",0
same,ΔBPd,[16],-5 and 0
same,ΔBPs,[16],-5 and -10 and 0
same,ΔHR,[16],0 and -5
same,ΔLVEDP,[16],0 and -1
same,Δdp/dt,"1st administration, 0.75 mg/kg i.d., 10 min",-100
same,ΔBPd,[17],-10 and -15
same,ΔBPs,[17],-15 and -20
same,ΔHR,[17],0 and -5
same,ΔLVEDP,[17],-2 and 0 and -3
same,ΔBPd,[18],-15 and -20
same,ΔBPs,[18],-25 and -20 and -35
same,ΔHR,[18],0 and -5
same,ΔLVEDP,[18],-3 and -2 and 1
same,Δdp/dt,[18],-100 and -200
same,ΔBPd,[19],-20 and -15 and -25
same,ΔBPs,[19],-30 and -20 and -40
same,ΔHR,[19],-5 and 0
same,ΔLVEDP,[19],-4 and -2 and 1
same,Δdp/dt,[19],-100 and -200
same,ΔBPd,[20],-20 and -25 and -10
same,ΔBPs,[20],-30 and -35 and -15 and -50
same,ΔHR,[20],-10 and -5
same,ΔLVEDP,[20],-3 and -2 and -4
same,Δdp/dt,[20],-200 and -300 and 0
same,ΔBPd,[21],-20 and -25 and -10
same,ΔBPs,[21],-30 and -35 and -15 and -45
same,ΔHR,[21],-15 and 5
same,ΔLVEDP,[21],-2 and -6 and -4
same,Δdp/dt,[21],-200 and -300
same,ΔBPd,[22],-20 and -5 and -15
same,ΔBPs,[22],-25 and -30 and -10
same,ΔHR,[22],-10 and -15 and 10
same,ΔLVEDP,[22],-3 and -2 and -7 and -4
same,Δdp/dt,[22],-200 and -300 and -100 and 0
same,ΔBPd,[23],-10 and -20 and 0
same,ΔBPs,[23],-15 and -20 and 0
same,ΔHR,[23],-5 and -10 and 0 and 15
same,ΔLVEDP,[23],-4 and -3 and -7
same,Δdp/dt,[23],-100 and 0 and 300
same,ΔBPd,[24],-5
same,ΔHR,[24],0
same,ΔBPs,[25],-5 and -10
same,ΔLVEDP,[25],0 and 1
same,Δdp/dt,[25],0 and -100
same,ΔHR,[26],0
same,ΔLVEDP,[26],0
same,ΔBPd,[27],-10 and -5
same,ΔBPs,[27],-15 and -5 and -10
same,Δdp/dt,[27],0 and -100 and -200
same,ΔBPd,[28],-15 and -10 and -5
same,ΔBPs,[28],-20 and -15
same,ΔHR,[28],-5 and 0
same,ΔLVEDP,[28],-1 and 2 and 0
same,Δdp/dt,[28],-100 and 0 and -300
same,ΔBPd,[29],-15 and -10 and -25
same,ΔBPs,[29],-25 and -20 and -35
same,ΔHR,[29],0 and -5
same,ΔLVEDP,[29],-1 and 0 and -2
same,Δdp/dt,[29],-100 and -600
same,ΔBPd,[30],-15 and -10 and -35
same,ΔBPs,[30],-30 and -20 and -50
same,ΔHR,[30],-5 and -10 and 0
same,ΔLVEDP,[30],-1 and -3
same,Δdp/dt,[30],-100 and -200 and -900
same,ΔBPd,[31],-10 and -15 and -25
same,ΔBPs,[31],-20 and -30 and -35
same,ΔHR,[31],0 and -15 and 5
same,ΔLVEDP,[31],-1 and -2 and -3
same,Δdp/dt,[31],-100 and -200 and -600
